Laboratory results: patent publication US5212166A, “Unsaturated 17β-subsituted 3-carboxy steroids” (Farmitalia Carlo Erba S.r.l., priority 1991, dated 1993)

Molecular target: T1, human prostatic 5α-reductase (Homo sapiens, UniProt P31213)
T1 construct: from homogenates of human benign prostatic hypertrophyc tissue as the enzyme source; from tissue; host or cells: human benign prostatic hypertrophic tissue, particulate fraction (nuclei, microsomes and mitochondria)
T1 sequence (P31213 1-254): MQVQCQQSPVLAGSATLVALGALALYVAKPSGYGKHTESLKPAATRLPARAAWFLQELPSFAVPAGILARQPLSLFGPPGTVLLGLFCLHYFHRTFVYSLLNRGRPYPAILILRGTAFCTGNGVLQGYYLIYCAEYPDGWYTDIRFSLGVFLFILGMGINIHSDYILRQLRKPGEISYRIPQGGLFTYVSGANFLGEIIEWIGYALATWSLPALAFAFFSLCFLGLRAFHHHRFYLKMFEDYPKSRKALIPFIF
Assay: Inhibition of 5α-reductase in vitro, particulate fraction of human benign prostatic hypertrophic tissue homogenate
Format: biochemical
Conditions: 1 μM [4-14C]testosterone, 5 mM NADPH, pH 5.5, 30 min at 37° C., read-out: concentration producing 50% inhibition on human prostatic 5α-reductase (IC50)
Protocol: For example, the inhibitory effect of the compounds of the invention on 5α-reductase was determined in vitro, according to the test procedure reported herebelow.
Inhibition of 5α-reductase was evaluated using the particulate fraction (containing nuclei, microsomes and mitochondria) from homogenates of human benign prostatic hypertrophyc tissue as the enzyme source.
The particulate fraction was prepared centrifuging prostate homogenate at 140,000 × g.
The resulting pellet, washed several times, was resuspended in buffer and stored at -80° C. in aliquots containing 10 mg protein/ml.
The assay for 5α-reductase was done in a final volume of 0.5 ml, containing 1 mM dithiothreitol, 40 mM TRIS-HCl buffer pH 5.5, 5 mM NADPH, 1 μM [4-^14 C]testosterone, 0.3 mg protein of the prostate particulate fraction and various concentrations of the inhibitors. […] Radioactivity on the plate was scanned and analyzed from quantitative plots printed by a TLC-analizer (Berthold). The fractional 5α-reduction of testosterone was calculated by relating the ^14 C-radioactivity in the 5α-reduced metabolites 5α-dihydrotestosterone, 3α- and 3β-androstanediols) regions to the total radioactivity in the testosterone and 5α-reduced metabolites regions. […]

CC(C)NC(=O)N(C(=O)[C@H]1CC[C@H]2[C@@H]3CC=C4C=C(C(=O)O)CC[C@]4(C)[C@H]3CC[C@]12C)C(C)C [17β-[N-isopropyl-N-(N-isopropylcarbamoyl)carbamoyl]androsta-3,5-diene-3-carboxylic acid]
IC50: 3 nM
